Results: US20260378560A1, “APPROACHES TO DESIGNING AND PERFORMING COMPRESSED BIOLOGICAL EXPERIMENTS AND SYSTEMS FOR IMPLEMENTING THE SAME” (EXVIVO LABS INC., priority 2023, published 2026)

How the values were obtained:
REH [1] = experiment: Cell viability (CellTiter Glo), library of cancer drugs, individual or sample compression with randomized (alphabetical) pools, REH; assay type: cell-based; details: REH; for DRS: None (measured individually); for DRS from deconvolution: Samples, 7 Pick 3 randomized (alphabetical) sample pools
Outline: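 Cells cultured with each drug individually at 1 nM–10 μM; viability by ATP luminescence (CellTiter Glo) to build dose-response curves and DRS. Samples read singly or pooled alphabetically (each drug in 3 of 7 pools), with pooled DRS recovered by additivity-based SUM deconvolution.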

REH [2] = experiment: Cell viability (CellTiter Glo), compressed perturbation pools with informed pool design, MAX-based deconvolution, REH; details: REH; for DRS: None (measured individually), informed pool design table; for DRS from MAX-based deconvolution: Samples, 7 Pick 3 informed perturbation pools; for DRS, REH, MAX: compressed perturbation pools, informed pool design, MAX-based deconvolution;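 as to DRS from MAX-based deconvolution: higher DRS means a larger drug effect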
Outline: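 Per-drug DRS recovered by MAX deconvolution, which assumes the strongest pool member masks the rest; after ranking, each drug in turn takes the DRS of the lowest-signal pool containing it, and leftovers score zero. Pools built from drug class and known toxic combinations; dose-response spans 1 nM to 10 μM, read by ATP-based luminescence.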

REH [3] = experiment: ATP-based luminescence cell viability (CellTiter Glo), drug response score, REH; set-up: scale not given here; details: for DRS from deconvolution: Target compression; for DRS, REH, None: no compression (individual drug)
Excerpt: As part of a screen, a drug could be screened at different concentrations ranging from a lowest concentration to a highest concentration. In such a scenario, multiple data structures may be obtained by the screening platform 210. […] With these multiple data structures, the analysis module 218 can generate a dose-response curve that describes the magnitude of the response of the biological target, as a function of exposure to different concentrations of the drug. Further, the analysis module 218 can calculate a metric that is indicative of the response of the biological target. In the event that the biological target is one of multiple biological targets that are introduced to the pools of drugs, the metric can be used by the screening platform 210 to better understand the relative magnitude of responses. One example of a metric is drug-response score (“DRS”). DRS can be calculated as a continuous function of multiple parameters of the non-linear dose-response curve, including the slope at the half-maximal effective concentration (also called “EC50”) and the top and bottom asymptotes of the dose-response curve. DRS can be calculated as follows: […]
where y is a continuous function of the variable dose x, a is the maximal response (i.e., the top asymptote of the curve), b is the slope of the curve, c is the IC50 (i.e., half-maximal inhibitory concentration), and d is the minimal response (i.e., the bottom asymptote of the curve). Other examples of metrics include those output by sigmoidal and Hill slide functions that, like DRS, incorporate multiple aspects of the dose-response curve into a continuous function.
Total cell viability was measured for each cancer cell line using an Adenosine TriPhosphate (“ATP”) assay, and more specifically an ATP-based luminescence assay (i.e., CellTiter Glo). Each cancer drug was screened at multiple concentrations ranging from one nanomolar (nM) to ten micromolar (UM) in order to generate a dose-response curve and calculate a drug response score (“DRS”) for each cancer cell line. The DRS was calculated as a continuous function of multiple parameters of the non-linear dose-response curve, including the slope at the half-maximal effective concentration (also called “EC50”) and the top and bottom asymptotes of the dose-response curve. […] After total cell viability was measured and DRS was calculated, the DRS of each cancer cell line in the pool was deconvolved for each cancer drug.
DRS for these anchor cell lines are bolded and italicized. Anchors can be identified based on frequency of the cell lines in pools with high DRS versus low DRS. At a high level, an anchor is predicted to be the cell line with the lowest individual DRS. In order to deconvolute individual cell line DRS values from pool DRS values, the anchor can start with an assumed DRS value of zero. Each pool can then be expressed as a polynomial of variables (cell lines in the pool) and constants (DRS value of the pool). The DRS value of each cell line can then be solved for using the anchor value and overlapping polynomial expressions. When multiple values are calculated for the final target solved from the polynomials, then the anchor has a non-zero value that can be determined based on the difference in the calculated value of the final target.
Each pool represented a co-culture of three cell lines (“Target Compression”).

SMILES | DRS (REH [1]) | DRS from deconvolution (REH [1]) | DRS (REH [2]) | DRS from MAX-based deconvolution (REH [2]) | DRS from deconvolution (REH [3]; 5 Pick 3 pools) | DRS from deconvolution (REH [3]; 6 Pick 3 pools) | DRS from deconvolution (REH [3]; 7 Pick 3 pools) | DRS, REH, MAX (REH [2]) | DRS, REH, None (REH [3])
COc1c(OCCCN2CCOCC2)ccc2c1N=C(NC(=O)c1cnc(N)nc1)N1CCN=C21 [Copanlisib] | 12.67 | 12.51 | 1.63 | 2.12 | 12.96 | 13.28 | 12.09 |  | 
COc1cc2ncnc(Nc3ccc(F)c(Cl)c3)c2cc1OCCCN1CCOCC1 [Gefitinib] | 5.66 | 5.59 | 0.00 | 0.00 |  |  |  | 4.06 | 3.15
N#Cc1ccnc(N2C(=O)CC[C@H]2C(=O)N(c2cncc(F)c2)[C@H](C(=O)NC2CC(F)(F)C2)c2ccccc2Cl)c1 [Ivosidenib] | 0.37 | 0.00 | 3.12 | 3.55 | 0.53 | 0.58 | 0.49 |  | 
C=CC(=O)Nc1cc(Nc2nccc(-c3cn(C)c4ccccc34)n2)c(OC)cc1N(C)CCN(C)C [Osimertinib] | 5.84 | 6.12 | 0.10 | 0.00 |  |  |  | 0.00 | 2.01
Cc1[nH]c2ccccc2c1CCNCc1ccc(/C=C/C(=O)NO)cc1 [Panobinostat] | 13.34 | 13.96 | 3.01 | 3.96 | 12.12 | 12.62 | 12.90 |  | 
CC1(C)CCC(CN2CCN(c3ccc(C(=O)NS(=O)(=O)c4ccc(NCC5CCOCC5)c([N+](=O)[O-])c4)c(Oc4cnc5[nH]ccc5c4)c3)CC2)=C(c2ccc(Cl)cc2)C1 [Venetoclax] | 3.91 | 4.05 | 4.37 | 0.00 | 1.56 | 3.18 | 1.88 | 4.43 | 
